US20250325529A1, “INHIBITORS OF FATTY ACID BINDING PROTEINS (FABPs), METHODS OF USE AND METHODS OF MAKING” (Celloram, inc., priority 2024, published 2025)
“Also recorded” adds a separate entry of the source.

Tests used:
[1] = tested on: Salmonella typhimurium tester strain TA98; assay: Ames test (Bacterial Reverse Mutation Test), TA98; assay type: cell-based
Method: (§1) PD152 (compound 2) was tested for genotoxic and cytotoxic side effects by Ames test. The Ames test is a Bacterial Reverse Mutation Test of mutagenicity that utilizes Salmonella typhimurium tester strains TA98, TA100, TA1535, TA1537 and Escherichia coli tester strain WP2 uvrA (pKM101), both in the presence and absence of S9.
(§2) The compound PD152 was tested at 10 concentrations (0.032-1000 μg/plate) in the presence of, or absence of, the hepatic enzyme S9.
The aniline FABP4/5 inhibitor compound, 2-((2-((2,4-dichloro-5-isopropoxyphenyl)amino)-2-oxoethyl)thio)-2-methylpropanoic acid (compound “B104” as disclosed in WO2023043803A1) also was tested for genotoxic and cytotoxic side effects by Ames test. […]

[2] = target: FABP5 (Homo sapiens (Human), UniProt Q01469); assay: Fluorescence (ANS) competition binding assay, FABP5; conditions: ANS displacement
How it was run: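 His-tagged FABPs were expressed in E. coli. Kd for ANS was first determined by titrating 2 μM protein with ANS and following fluorescence increase. Compounds then displaced ANS from 1:1 protein:ANS complexes, and Kd was derived from the competition EC50 and the ANS Kd.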

[3] = tested on: OVCAR8 cells; assay: Proliferation assay (Incucyte confluency), OVCAR8; assay type: cell-based; conditions: Homo sapiens, OVCAR-8, 96 h, 4 days, read-out: IC50, inhibition of OVCAR8 proliferation
Method: (§3) COS-7, MDA-MB-231, and HepG2, were cultured in Dulbecco's modified Eagle's medium (DMEM) supplemented with 10% fetal bovine serum (Invitrogen Life Sciences, Carlsbad, CA). BT-549, OVCAR5 and OVCAR8 cells were cultured in L-Glutamine containing RPMI medium supplemented with 10% fetal calf serum (Invitrogen Life Sciences, Carlsbad, CA). The primary Human Mammary Epithelial Cells (HMEC) were cultured in mammary epithelial cell complete medium (basal medium plus rH-Insulin (5 μg/mL); L-Glutamine (6 mM); Epinephrine (1 μM); Apo-Transferrin (5 μg/mL); rH-TGF-α (0.5 ng/mL); ExtractP (0.4%); Hydrocortisone Hemisuccinate (100 ng/mL)).
(§4) 2000 cells were plated in each well of 96-well plate. The next day cells were treated with compounds and incubated in Incucyte for 4 days. Images taken every 4 hours for the duration of the time were analyzed to calculate percentage of confluency in response to the treatments. Growth inhibition was calculated as 1—(percentage of viable cells out of untreated cells).

[4] = tested on: Salmonella typhimurium tester strains TA98, TA100, TA1535, TA1537 and Escherichia coli tester strain WP2 uvrA (pKM101); assay: Ames test, overall conclusion for the tested strains; assay type: cell-based; conditions: presence and absence of S9
Method: as §1, §2
The aniline FABP4/5 inhibitor compound, 2-((2-((2,4-dichloro-5-isopropoxyphenyl)amino)-2-oxoethyl)thio)-2-methylpropanoic acid (compound “B104” as disclosed in WO2023043803A1) also was tested for genotoxic and cytotoxic side effects by Ames test. B104 was tested using the Salmonella typhimurium tester stains TA98, TA100, TA1535, and TA1537, both in the presence and absence of the hepatic enzyme S9, at 5 concentrations (1.5-64 μg/plate).

[5] = target: PPARδ (Homo sapiens (Human), UniProt Q03181); assay: Transcriptional activation assay in COS7 cells, PPARδ; assay type: cell-based; conditions: PPRE luciferase reporter, PD151 and PD152 at 10 μM
Method: COS-7 were cultured in 6-well plates and co-transfected with either a luciferase reporter driven by 3 copies of a PPRE and expression vector for either PPARδ, PPARα or PPARγ together with a vector harboring cDNA for β-galactosidase, serving as a transfection control. To test whether FABP4 or FABP5 mediate activation of their cognate receptors PPARγ and PPARδ, respectively, cells were also co-transfected with a plasmid harboring sequence of either FABP4 or FABP5. 18 h post-transfection, cells were placed in a serum-free medium and treated with agonist/compound. 18 h. later, cells were lysed, luciferase activity was assayed (Promega, WI, USA) and corrected for transfection efficiency by the activity of β-galactosidase.
Transcriptional activation assays were carried out utilizing COS7 cells as described above.

[6] = tested on: MB-231 cells; assay: Proliferation assay (Incucyte confluency), MB-231; assay type: cell-based; conditions: Homo sapiens, 96 h, 4 days, read-out: IC50, inhibition of proliferation
Method: as §3, §4

[7] = TA98, presence of S9, 0.0312 μg/plate
[8] = TA98, presence of S9, 0.1 μg/plate
[9] = TA98, presence of S9, 0.316 μg/plate
[10] = TA98, presence of S9, 1 μg/plate
[11] = TA98, presence of S9, 3.16 μg/plate
[12] = TA98, presence of S9, 10 μg/plate
[13] = TA98, presence of S9, 31.6 μg/plate
[14] = TA98, presence of S9, 100 μg/plate
[15] = TA98, presence of S9, 316 μg/plate
[16] = TA98, presence of S9, 1000 μg/plate

PPARδ, sequence (Q03181 whole entry, species assumed): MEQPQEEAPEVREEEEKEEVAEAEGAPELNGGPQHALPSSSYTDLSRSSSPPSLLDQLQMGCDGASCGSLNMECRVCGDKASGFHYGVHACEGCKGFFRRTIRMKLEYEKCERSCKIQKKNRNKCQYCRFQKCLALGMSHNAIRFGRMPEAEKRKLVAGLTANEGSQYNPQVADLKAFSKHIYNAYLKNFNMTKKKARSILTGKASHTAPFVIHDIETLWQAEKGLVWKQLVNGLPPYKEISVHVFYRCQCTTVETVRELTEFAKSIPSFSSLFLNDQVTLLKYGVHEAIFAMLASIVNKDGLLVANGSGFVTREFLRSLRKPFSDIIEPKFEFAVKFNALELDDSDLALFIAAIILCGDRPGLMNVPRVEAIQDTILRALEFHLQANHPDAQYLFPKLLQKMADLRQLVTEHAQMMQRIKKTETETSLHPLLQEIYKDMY
FABP5, sequence (Q01469 whole entry, species assumed): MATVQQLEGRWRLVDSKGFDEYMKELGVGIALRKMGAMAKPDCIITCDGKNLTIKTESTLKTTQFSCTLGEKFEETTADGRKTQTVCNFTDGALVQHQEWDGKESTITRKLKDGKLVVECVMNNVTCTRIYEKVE

For CC(C)Oc1nc(NC(=O)CSCC(=O)O)c(Cl)cc1Cl [PD152, 2-((2-((3,5-dichloro-6-isopropoxypyridin-2-yl)amino)-2-oxoethyl)thio)acetic acid], the Fold increase [1, 7] was 1, the “Mean number of revertants” value [1, 7] was 6 and the Fold increase [1, 8] was 1. For the same compound, the “Mean number of revertants” value [1, 8] was 5, the Fold increase [1, 9] was 1 and the “Mean number of revertants” value [1, 9] was 6. The Fold increase [1, 10] was 1, the “Mean number of revertants” value [1, 10] was 6 and the Fold increase [1, 11] was 1. The “Mean number of revertants” value [1, 11] was 6, the Fold increase [1, 12] was 1 and the “Mean number of revertants” value [1, 12] was 6. For the same compound, the Fold increase [1, 13] was 1, the “Mean number of revertants” value [1, 13] was 6 and the Fold increase [1, 14] was 1. For the same compound, the “Mean number of revertants” value [1, 14] was 6, the Fold increase [1, 15] was 1 and the “Mean number of revertants” value [1, 15] was 6. The Fold increase [1, 16] was 1, the “Mean number of revertants” value [1, 16] was 5 and the Kd [2] was 0.028 µM. For the same compound, the IC50 [3] was 0.665 µM, the “Cytotoxicity to the tested strains” value [4] was “non-cytotoxic” and the “Mutagenicity in the Ames test” value [4] was “non-mutagenic”. For the same compound, the “Activation of transcription by PPARδ” value [5] was “None of these tested compounds activated; also recorded: none of the tested compounds PD151 and PD152 activated transcription” and the IC50 [6] was 0.603 µM.
